Test results taken from US11542288B2, “Antiviral compounds” (priority 2020, dated 2023).
Where two headings read alike, the source gives them in different places.

Experiments:
HIV-1 protease I84V = target: T1, HIV-1 protease I84V (Human immunodeficiency virus type 1 group M subtype B, UniProt P12497, I572V/Q495K); assay: HIV enzyme inhibition assay (Ki), I84V variant; type: biochemical; conditions: drug-resistant protease variant I84V
T1 construct: onto NL4-3 wild-type protease on a pET11a plasmid; made in house

HIV-1 protease I50V/A71V = target: T2, HIV-1 protease I50V/A71V (Human immunodeficiency virus type 1 group M subtype B, UniProt P12497, A559V/I538V/Q495K); assay: HIV enzyme inhibition assay (Ki), I50V/A71V variant; type: biochemical; conditions: drug-resistant protease variant I50V/A71V
T2 construct: onto NL4-3 wild-type protease on a pET11a plasmid; made in house

HIV-1 protease 8 Mutant = target: T3, HIV-1 protease 8 Mutant (Human immunodeficiency virus type 1 group M subtype B, UniProt P12497); assay: HIV enzyme inhibition assay (Ki), 8 Mutant variant; type: biochemical; conditions: drug-resistant protease variant 8 Mutant
T3 construct: onto NL4-3 wild-type protease on a pET11a plasmid with codon optimization for protein expression in Escherichia coli; A Q7K mutation was included to prevent autoproteolysis

HIV-1 protease 10 Mutant = target: T4, HIV-1 protease 10 Mutant (Human immunodeficiency virus type 1 group M subtype B, UniProt P12497); assay: HIV enzyme inhibition assay (Ki), 10 Mutant variant; type: biochemical; conditions: drug-resistant protease variant 10 Mutant
T4 construct: onto NL4-3 wild-type protease on a pET11a plasmid with codon optimization for protein expression in Escherichia coli; A Q7K mutation was included to prevent autoproteolysis

HIV-1 protease 11 Mutant = target: T5, HIV-1 protease 11 Mutant (Human immunodeficiency virus type 1 group M subtype B, UniProt P12497); assay: HIV enzyme inhibition assay (Ki), 11 Mutant variant; type: biochemical; conditions: drug-resistant protease variant 11 Mutant
T5 construct: onto NL4-3 wild-type protease on a pET11a plasmid with codon optimization for protein expression in Escherichia coli; A Q7K mutation was included to prevent autoproteolysis

wild-type HIV-1 = assay: HIV antiviral assay (293T / TZM-BL luciferase); type: cell-based; conditions: read-out: Antiviral WT EC50
HIV-1 protease KY24 = HIV-1 protease KY24 (Human immunodeficiency virus type 1, UniProt P12497); conditions: read-out: Ki KY24; drug-resistant protease variant KY24
HTLV-1 protease [1] = target: T6, HTLV-1 protease (Human T-cell leukemia virus type I, UniProt Q82134, L40I); conditions: read-out: Ki against HTLV-1 protease; 1 μM protein, MA/CA FRET substrate
HTLV-1 protease [2] = target: T6, HTLV-1 protease; assay: biochemical

T6 sequence (Q82134 entry or part of it L40I): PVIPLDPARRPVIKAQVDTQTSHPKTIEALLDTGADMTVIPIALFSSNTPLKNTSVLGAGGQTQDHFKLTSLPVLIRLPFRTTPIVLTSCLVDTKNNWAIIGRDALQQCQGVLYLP

SMILES	Ki (HIV-1 protease I84V) [nM]	Ki (HIV-1 protease I50V/A71V) [nM]	Ki (HIV-1 protease 8 Mutant) [nM]	Ki (HIV-1 protease 10 Mutant) [nM]	Ki (HIV-1 protease 11 Mutant) [nM]	EC50 (wild-type HIV-1) [nM]	Ki (HIV-1 protease KY24) [nM]	Ki (HTLV-1 protease [1]) [nM]	Ki (HTLV-1 protease [2]) [nM]
CCOP(=O)(COc1ccc(C[C@H](NC(=O)O[C@H]2CO[C@H]3OCC[C@H]32)[C@H](O)CN(C[C@@H](C)CC)S(=O)(=O)c2ccc(OC)cc2)cc1)OCC [Example 3, (3R,3aS,6aR)-hexahydrofuro [2,3-b]furan-3-yl ((2S,3R)-1-(4-((diethoxyphosphoryl)methoxy)phenyl)-3-hydroxy-4-((4-methoxy-N—((S)-2-methylbutyl)phenyl)sulfonamido)butan-2-yl)carbamate]	< 0.005	< 0.005	0.78 ± 0.07	3.7 ± 0.3	10.5 ± 0.9	7.8	0.16 ± 0.02		
CCOP(=O)(COc1ccc(C[C@H](NC(=O)O[C@H]2CO[C@H]3OCC[C@H]32)[C@H](O)CN(CC(CC)CC)S(=O)(=O)c2ccc3c(c2)OCO3)cc1)OCC [Example 4, (3R,3aS,6aR)-hexahydrofuro[2,3-b]furan-3-yl ((2S,3R)-1-(4-((diethoxyphosphoryl)methoxy)phenyl)-4-(N-(2-ethylbutyl)benzo[d][1,3]dioxole-5-sulfonamido)-3-hydroxybutan-2-yl)carbamate]	< 0.005	< 0.005	0.37 ± 0.03	1.6 ± 0.06	6.9 ± 0.5	3.11	0.08 ± 0.03		
CCOP(=O)(COc1ccc(C[C@H](NC(=O)O[C@H]2CO[C@H]3OCC[C@H]32)[C@H](O)CN(C[C@@H](C)CC)S(=O)(=O)c2ccc(N)cc2)cc1)OCC [Example 5, (3R,3aS,6aR)-hexahydrofuro[2,3-b]furan-3-yl ((2S,3R)-4-((4-amino-N—((S)-2-methylbutyl)phenyl)sulfonamido)-1-(4-((diethoxyphosphoryl)methoxy)phenyl)-3-hydroxybutan-2-yl)carbamate]	< 0.005	< 0.005	13.3 ± 3.5	146 ± 10	259 ± 17	22.9	2.31 ± 0.09		
CCOP(=O)(COc1ccc(C[C@H](NC(=O)O[C@H]2CO[C@H]3OCC[C@H]32)[C@H](O)CN(C[C@@H](C)CC)S(=O)(=O)c2ccc(CO)cc2)cc1)OCC [Example 6, (3R,3aS,6aR)-hexahydrofuro[2,3-b]furan-3-yl ((2S,3R)-1-(4-((diethoxyphosphoryl)methoxy)phenyl)-3-hydroxy-4-((4-(hydroxymethyl)-N—((S)-2-methylbutyl)phenyl)sulfonamido)butan-2-yl)carbamate]	< 0.005	< 0.005	4.98 ± 0.4	52.9 ± 4.2	103 ± 3	27.3	1.89 ± 0.17		
CCOP(=O)(COc1ccc(C[C@H](NC(=O)O[C@H]2CO[C@H]3OCC[C@H]32)[C@H](O)CN(CC(CC)CC)S(=O)(=O)c2ccc(OC)cc2)cc1)OCC [Example 8, (3R,3aS,6aR)-hexahydrofuro[2,3-b]furan-3-yl ((2S,3R)-1-(4-((diethoxyphosphoryl)methoxy)phenyl)-4-((N-(2-ethylbutyl)-4-methoxyphenyl)sulfonamido)-3-hydroxybutan-2-yl)carbamate]	< 0.005	< 0.005	0.77 ± 0.06	1.26 ± 0.08	2.2 ± 0.2	5.15	0.16 ± 0.04		
CCOP(=O)(COc1ccc(C[C@H](NC(=O)O[C@H]2CO[C@H]3OCC[C@H]32)[C@H](O)CN(CC(C)C)S(=O)(=O)c2ccc3c(c2)OCO3)cc1)OCC [Example 9, (3R,3aS,6aR)-hexahydrofuro[2,3-b]furan-3-yl ((2S,3R)-1-(4-((diethoxyphosphoryl)methoxy)phenyl)-3-hydroxy-4-(N-isobutylbenzo[d][1,3]dioxole-5-sulfonamido)butan-2-yl)carbamate]	< 0.005	< 0.005	2.2 ± 0.5	4.5 ± 0.8	63.5 ± 15.2	5.67	0.36 ± 0.05		
CCOP(=O)(COc1ccc(C[C@H](NC(=O)O[C@H]2CO[C@H]3OCC[C@H]32)[C@H](O)CN(CC(C)C)S(=O)(=O)c2ccc3ncsc3c2)cc1)OCC [Example 10, (3R,3aS,6aR)-hexahydrofuro[2,3-b]furan-3-yl ((2S,3R)-1-(4-((diethoxyphosphoryl)methoxy)phenyl)-3-hydroxy-4-(N-isobutylbenzo [d]thiazole-6-sulfonamido)butan-2-yl)carbamate]	< 0.005	< 0.005	0.93 ± 0.2	1.9 ± 0.3	15 ± 3.5	10.4	0.23 ± 0.02		
CCOP(=O)(COc1ccc(C[C@H](NC(=O)O[C@H]2CO[C@H]3OCC[C@H]32)[C@H](O)CN(C[C@@H](C)CC)S(=O)(=O)c2ccc3ncsc3c2)cc1)OCC [Example 11, (3R,3aS,6aR)-hexahydrofuro[2,3-b]furan-3-yl ((2S,3R)-1-(4-((diethoxyphosphoryl)methoxy)phenyl)-3-hydroxy-4-(N—((S)-2-methylbutyl)benzo[d]thiazole-6-sulfonamido)butan-2-yl)carbamate]	< 0.005	< 0.005	1.8 ± 0.5	1.2 ± 0.4	9.03 ± 4.21	9.93	0.09 ± 0.01		
CCOP(=O)(COc1ccc(C[C@H](NC(=O)O[C@H]2CO[C@H]3OCC[C@H]32)[C@H](O)CN(CC(CC)CC)S(=O)(=O)c2ccc3ncsc3c2)cc1)OCC [Example 12, (3R,3aS,6aR)-hexahydrofuro[2,3-b]furan-3-yl ((2S,3R)-1-(4-((diethoxyphosphoryl)methoxy)phenyl)-4-(N-(2-ethylbutyl)benzo[d]thiazole-6-sulfonamido)-3-hydroxybutan-2-yl)carbamate]	< 0.005	< 0.005	0.25 ± 0.08	0.24 ± 0.09		10.7			
CCOP(=O)(COc1ccc(C[C@H](NC(=O)O[C@H]2CO[C@H]3OCC[C@H]32)[C@H](O)CN(CC(CC)CC)S(=O)(=O)c2ccc(CO)cc2)cc1)OCC [Example 13, (3R,3aS,6aR)-hexahydrofuro[2,3-b]furan-3-yl ((2S,3R)-1-(4-((diethoxyphosphoryl)methoxy)phenyl)-4-((N-(2-ethylbutyl)-4-(hydroxymethyl)phenyl)sulfonamido)-3-hydroxybutan-2-yl)carbamate]	< 0.005	< 0.005	2.2 ± 0.4	32.1 ± 4.3	81.2 ± 10.8	17	0.6 ± 0.1		
CC(C)(C)NC(=O)[C@@H]1CN(Cc2cccnc2)CCN1C[C@@H](O)C[C@@H](Cc1ccccc1)C(=O)N[C@H]1c2ccccc2C[C@H]1O [IDV, indinavir, reference compound]								62700	60000
